# Test results: patent publication US10358672B2, “7-β-hydroxysteroid dehydrogenase mutants and process for the preparation of ursodeoxycholic acid” (Pharmazell GmbH, priority 2014, dated 2019)
# Changes are numbered by the printed parent chain.
# Assays:
# [1] = target: Collinsella aerofaciens 7β-HSDH mutant [T17F] (Collinsella aerofaciens, UniProt A4ECA9, T17F); type: biochemical; details: in comparison with the wild type
# [2] = target: 7β-HSDH obtainable from Collinsella aerofaciens DSM 3979 (Collinsella aerofaciens, UniProt A4ECA9); details: cited from earlier work
# [3] = target: T1, Collinsella aerofaciens 7β-HSDH mutant [R64E], with His tag, SEQ ID NO:4 (Collinsella aerofaciens, UniProt A4ECA9, R64E); test: Michaelis-Menten kinetics, purified 7β-HSDH [R64E]; details: in comparison with the wild type
# T1 sequence (A4ECA9 with tags, fused parts or gaps R64E): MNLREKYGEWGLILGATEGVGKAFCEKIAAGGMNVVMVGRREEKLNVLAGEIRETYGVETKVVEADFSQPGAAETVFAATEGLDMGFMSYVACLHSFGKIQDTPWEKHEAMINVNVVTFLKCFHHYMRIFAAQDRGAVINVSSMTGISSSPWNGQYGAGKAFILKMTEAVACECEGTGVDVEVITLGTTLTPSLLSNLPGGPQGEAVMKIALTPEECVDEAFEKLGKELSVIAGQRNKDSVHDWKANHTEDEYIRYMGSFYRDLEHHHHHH
# Excerpt: In this manner, all the enzymes have been isolated and characterized.
# The His-tag allows for very simple purification of the HSDH protein since this sequence is bound with high specificity by specific chromatographic material (NTA (Ninitrilotriacetate)-modified support material, loaded with divalent nickel ions, for example “His Pur Ni-NTA” (Nimagen B. V., Nijmegen, The Netherlands)). To this end, the cell-free crude extract is applied to a dropping column comprising this material, which dropping column has previously been equilibrated with the disruption buffer (3 to 5 column volumes). Weakly binding protein was removed by washing with 3 to 5 column volumes of wash buffer (20 mM imidazole, 50 mM sodium phosphate, 300 mM NaCl, pH 8). […] The process was carried out at room temperature. The imidazole which was present was to be removed by buffer exchange.
# (§1) The activity of the 7β-HSDH and of the mutants was determined using a photometric assay, where the decrease in absorbance was measured at 340 nm over a period of 30 seconds.
# [4] = target: T2, Collinsella aerofaciens 7β-HSDH mutant [G39S], with His tag, SEQ ID NO:5 (Collinsella aerofaciens, UniProt A4ECA9, G39S); test: Michaelis-Menten kinetics, purified 7β-HSDH [G39S]; details: in comparison with the wild type
# T2 sequence (A4ECA9 with tags, fused parts or gaps G39S): T1 sequence (A4ECA9 with tags, fused parts or gaps R64E) with G39S, E64R
# Description: as §1
# The kinetic parameter constants vmax and KM were determined with purified enzyme.
# [5] = target: T3, Collinsella aerofaciens 7β-HSDH dual mutant [G39S/R64E], with His tag, SEQ ID NO:6 (Collinsella aerofaciens, UniProt A4ECA9, G39S/R64E); test: Michaelis-Menten kinetics, purified 7β-HSDH [G39S/R64E]
# T3 sequence (A4ECA9 with tags, fused parts or gaps G39S/R64E): T1 sequence (A4ECA9 with tags, fused parts or gaps R64E) with G39S
# Description: as §1
# 7β-HSDH obtainable from Collinsella aerofaciens DSM 3979, sequence (A4ECA9 whole entry): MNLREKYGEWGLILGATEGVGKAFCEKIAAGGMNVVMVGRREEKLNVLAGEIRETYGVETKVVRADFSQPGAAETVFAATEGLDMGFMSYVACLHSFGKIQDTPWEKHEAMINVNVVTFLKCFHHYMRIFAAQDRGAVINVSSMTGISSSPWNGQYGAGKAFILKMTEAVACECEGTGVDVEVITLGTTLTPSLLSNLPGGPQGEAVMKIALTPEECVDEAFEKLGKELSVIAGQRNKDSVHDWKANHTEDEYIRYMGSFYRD
# Collinsella aerofaciens 7β-HSDH mutant [T17F], sequence (A4ECA9 1-263 with tags or gaps T17F): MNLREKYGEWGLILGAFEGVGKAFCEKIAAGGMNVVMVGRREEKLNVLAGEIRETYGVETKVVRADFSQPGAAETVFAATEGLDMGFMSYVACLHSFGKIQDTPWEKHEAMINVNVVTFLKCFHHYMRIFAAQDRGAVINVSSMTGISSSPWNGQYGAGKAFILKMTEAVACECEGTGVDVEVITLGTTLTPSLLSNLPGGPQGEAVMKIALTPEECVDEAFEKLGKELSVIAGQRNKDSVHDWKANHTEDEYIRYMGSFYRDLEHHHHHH
smiles,measurement,setting,value
"C[C@H](CCC(=O)O)[C@H]1CC[C@H]2[C@@H]3C(=O)C[C@@H]4CC(=O)CC[C@]4(C)[C@H]3CC(=O)[C@]12C [DHCA, dehydrocholic acid]","Vmax (DHCA), improvement",[1],+5-fold better
same,kcat,[2],875.35
same,"Vmax (DHCA), improvement",[3],+5-fold better
same,Substrate inhibition Ki,[3]; in words,+reduced
same,"Vmax (DHCA), improvement",[4],+6-fold better
same,Substrate inhibition Ki,[4]; in words,+reduced
same,"Vmax (DHCA), improvement",[5]; in comparison with the wild type,+7-fold better
same,substrate inhibition,"[5]; in words, course of kinetics in FIG. 6",no longer demonstrates a substrate inhibition
same,Substrate inhibition Ki,"[5]; in words, in comparison with the wild type",++eliminated
